Measured values: PubChem BioAssay AID2060512 (Molecular Pharmacology Branch, DTP, NCI, 2025)

System: 186277-243-T-J2-PDC complex spheroid viability
Test: Anticancer human tumor 186277-243-T-J2-PDC patient-derived colon adenocarcinoma cell line growth inhibition [GQUAD]
Details: for IC50: curve of first compound; for viability, T/C: stronger effect = lower value
In short: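 Tumor cells were grown as complex spheroids with HUVEC endothelial cells and mesenchymal stem cells as stroma. G-quadruplex stabilizers were combined with targeted agents over half-log dilutions from near the clinical Cmax, or from 10 microM.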

[1] = second compound 0.0316 µM, first compound 0.0316 µM
[2] = second compound 0.0316 µM, first compound 0.316 µM
[3] = second compound 0.1 µM, first compound 0.0316 µM
[4] = second compound 0.1 µM, first compound 0.316 µM
[5] = second compound 0.316 µM, first compound 0.0316 µM
[6] = second compound 0.316 µM, first compound 0.316 µM
[7] = second compound 1 µM, first compound 0.0316 µM
[8] = second compound 1 µM, first compound 0.316 µM
[9] = second compound 3.16 µM, first compound 0.0316 µM
[10] = second compound 3.16 µM, first compound 0.316 µM
[11] = second compound 10 µM, first compound 0.0316 µM
[12] = second compound 10 µM, first compound 0.316 µM
[13] = second compound 0.0316 µM, first compound 0.1 µM
[14] = second compound 0.0316 µM, first compound 1 µM
[15] = second compound 0.0316 µM, first compound 3.16 µM
[16] = second compound 0.0316 µM, first compound 10 µM
[17] = second compound 0.1 µM, first compound 0.1 µM
[18] = second compound 0.1 µM, first compound 1 µM
[19] = second compound 0.1 µM, first compound 3.16 µM
[20] = second compound 0.1 µM, first compound 10 µM
[21] = second compound 0.316 µM, first compound 0.1 µM
[22] = second compound 0.316 µM, first compound 1 µM
[23] = second compound 0.316 µM, first compound 3.16 µM
[24] = second compound 0.316 µM, first compound 10 µM
[25] = second compound 1 µM, first compound 0.1 µM
[26] = second compound 1 µM, first compound 1 µM
[27] = second compound 1 µM, first compound 3.16 µM
[28] = second compound 1 µM, first compound 10 µM
[29] = second compound 3.16 µM, first compound 0.1 µM
[30] = second compound 3.16 µM, first compound 1 µM
[31] = second compound 3.16 µM, first compound 3.16 µM
[32] = second compound 3.16 µM, first compound 10 µM
[33] = second compound 10 µM, first compound 0.1 µM
[34] = second compound 10 µM, first compound 1 µM
[35] = second compound 10 µM, first compound 3.16 µM
[36] = second compound 10 µM, first compound 10 µM
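Note: spheroids exposed to drugs for 7 days.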
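Throughout, for viability, T/C: 100% = DMSO vehicle control viability.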

CC[C@@]1(O)C(=O)OCc2c1cc1n(c2=O)Cc2cc3c(CN(C)C)c(O)ccc3nc2-1 + Cc1[nH]c2ccc(F)cc2c1-c1nc2c3cccnc3c3ncccc3c2[nH]1
IC50 (second compound 0.0316 µM): > 316 nM
IC50 (second compound 0.1 µM): > 316 nM
IC50 (second compound 0.316 µM): > 316 nM
IC50 (second compound 1 µM): > 316 nM
IC50 (second compound 3.16 µM): > 316 nM
IC50 (second compound 10 µM): > 316 nM
viability, T/C (second compound 0.0316 µM, first compound 0.000999 µM): 97%
viability, T/C (second compound 0.0316 µM, first compound 0.00316 µM): 91.6%
viability, T/C (second compound 0.0316 µM, first compound 0.00999 µM): 88.2%
viability, T/C [1]: 93.9%
viability, T/C (second compound 0.0316 µM, first compound 0.0999 µM): 68.2%
viability, T/C [2]: 51.6%
viability, T/C (second compound 0.1 µM, first compound 0.000999 µM): 111%
viability, T/C (second compound 0.1 µM, first compound 0.00316 µM): 106%
viability, T/C (second compound 0.1 µM, first compound 0.00999 µM): 94.2%
viability, T/C [3]: 93.7%
viability, T/C (second compound 0.1 µM, first compound 0.0999 µM): 77.9%
viability, T/C [4]: 59.6%
viability, T/C (second compound 0.316 µM, first compound 0.000999 µM): 96.3%
viability, T/C (second compound 0.316 µM, first compound 0.00316 µM): 95%
viability, T/C (second compound 0.316 µM, first compound 0.00999 µM): 92.8%
viability, T/C [5]: 89.8%
viability, T/C (second compound 0.316 µM, first compound 0.0999 µM): 78%
viability, T/C [6]: 60.7%
viability, T/C (second compound 1 µM, first compound 0.000999 µM): 95.3%
viability, T/C (second compound 1 µM, first compound 0.00316 µM): 101%
viability, T/C (second compound 1 µM, first compound 0.00999 µM): 94.8%
viability, T/C [7]: 103%
viability, T/C (second compound 1 µM, first compound 0.0999 µM): 77.7%
viability, T/C [8]: 55.7%
viability, T/C (second compound 3.16 µM, first compound 0.000999 µM): 118%
viability, T/C (second compound 3.16 µM, first compound 0.00316 µM): 94.1%
viability, T/C (second compound 3.16 µM, first compound 0.00999 µM): 109%
viability, T/C [9]: 92.9%
viability, T/C (second compound 3.16 µM, first compound 0.0999 µM): 67.4%
viability, T/C [10]: 57.4%
viability, T/C (second compound 10 µM, first compound 0.000999 µM): 87.9%
viability, T/C (second compound 10 µM, first compound 0.00316 µM): 99.9%
viability, T/C (second compound 10 µM, first compound 0.00999 µM): 86.8%
viability, T/C [11]: 87.3%
viability, T/C (second compound 10 µM, first compound 0.0999 µM): 79.8%
viability, T/C [12]: 56.1%

COc1cc(C2c3cc4c(cc3C(OC3OC5COC(C)OC5C(O)C3O)C3COC(=O)C23)OCO4)cc(OC)c1O (stereo not drawn) + Cc1[nH]c2ccc(F)cc2c1-c1nc2c3cccnc3c3ncccc3c2[nH]1
IC50 (second compound 0.0316 µM): 3720 nM
IC50 (second compound 0.1 µM): 2420 nM
IC50 (second compound 0.316 µM): 3480 nM
IC50 (second compound 1 µM): 3340 nM
IC50 (second compound 3.16 µM): 2580 nM
IC50 (second compound 10 µM): 2760 nM
viability, T/C [1]: 104%
viability, T/C [13]: 101%
viability, T/C [2]: 101%
viability, T/C [14]: 62.2%
viability, T/C [15]: 61.3%
viability, T/C [16]: 25%
viability, T/C [3]: 92.1%
viability, T/C [17]: 92.4%
viability, T/C [4]: 76.8%
viability, T/C [18]: 62%
viability, T/C [19]: 47.9%
viability, T/C [20]: 27.2%
viability, T/C [5]: 94.6%
viability, T/C [21]: 90.2%
viability, T/C [6]: 83.4%
viability, T/C [22]: 69.3%
viability, T/C [23]: 52.9%
viability, T/C [24]: 26.2%
viability, T/C [7]: 104%
viability, T/C [25]: 87.1%
viability, T/C [8]: 85.6%
viability, T/C [26]: 66.9%
viability, T/C [27]: 53.5%
viability, T/C [28]: 27.4%
viability, T/C [9]: 96.6%
viability, T/C [29]: 101%
viability, T/C [10]: 110%
viability, T/C [30]: 69%
viability, T/C [31]: 49.8%
viability, T/C [32]: 25.5%
viability, T/C [11]: 103%
viability, T/C [33]: 98%
viability, T/C [12]: 94.1%
viability, T/C [34]: 70.6%
viability, T/C [35]: 48.1%
viability, T/C [36]: 30.5%

COc1cccc2c1C(=O)c1c(O)c3c(c(O)c1C2=O)CC(O)(C(=O)CO)CC3OC1CC(N)C(O)C(C)O1 (stereo not drawn) + Cc1[nH]c2ccc(F)cc2c1-c1nc2c3cccnc3c3ncccc3c2[nH]1
IC50 (second compound 0.0316 µM): 696 nM
IC50 (second compound 0.1 µM): 511 nM
IC50 (second compound 0.316 µM): 686 nM
IC50 (second compound 1 µM): 674 nM
IC50 (second compound 3.16 µM): 623 nM
IC50 (second compound 10 µM): 667 nM
viability, T/C [1]: 104%
viability, T/C [13]: 99.2%
viability, T/C [2]: 95.9%
viability, T/C [14]: 28.9%
viability, T/C [15]: 5.65%
viability, T/C [16]: 0.19%
viability, T/C [3]: 117%
viability, T/C [17]: 88.9%
viability, T/C [4]: 70.5%
viability, T/C [18]: 29.5%
viability, T/C [19]: 0.54%
viability, T/C [20]: 0.13%
viability, T/C [5]: 96.1%
viability, T/C [21]: 116%
viability, T/C [6]: 81.4%
viability, T/C [22]: 34.9%
viability, T/C [23]: 0.6%
viability, T/C [24]: 0.26%
viability, T/C [7]: 104%
viability, T/C [25]: 96.3%
viability, T/C [8]: 85.5%
viability, T/C [26]: 32%
viability, T/C [27]: 0.77%
viability, T/C [28]: 0.15%
viability, T/C [9]: 84.7%
viability, T/C [29]: 92.1%
viability, T/C [10]: 75%
viability, T/C [30]: 32.4%
viability, T/C [31]: 1.37%
viability, T/C [32]: 0.86%
viability, T/C [11]: 90.4%
viability, T/C [33]: 98%
viability, T/C [12]: 81.5%
viability, T/C [34]: 32.8%
viability, T/C [35]: 1.17%
viability, T/C [36]: 0.68%

O=c1[nH]cc(F)c(=O)[nH]1 + Cc1[nH]c2ccc(F)cc2c1-c1nc2c3cccnc3c3ncccc3c2[nH]1
IC50 (second compound 0.0316 µM): > 10000 nM
IC50 (second compound 0.1 µM): > 10000 nM
IC50 (second compound 0.316 µM): 8530 nM
IC50 (second compound 1 µM): > 10000 nM
IC50 (second compound 3.16 µM): 7710 nM
IC50 (second compound 10 µM): 6670 nM
viability, T/C [1]: 107%
viability, T/C [13]: 99.2%
viability, T/C [2]: 110%
viability, T/C [14]: 106%
viability, T/C [15]: 67.7%
viability, T/C [16]: 51.4%
viability, T/C [3]: 94.7%
viability, T/C [17]: 86.5%
viability, T/C [4]: 110%
viability, T/C [18]: 109%
viability, T/C [19]: 80.9%
viability, T/C [20]: 51.7%
viability, T/C [5]: 84.9%
viability, T/C [21]: 101%
viability, T/C [6]: 106%
viability, T/C [22]: 124%
viability, T/C [23]: 80.7%
viability, T/C [24]: 45.1%
viability, T/C [7]: 98.2%
viability, T/C [25]: 93.7%
viability, T/C [8]: 93.5%
viability, T/C [26]: 87.7%
viability, T/C [27]: 80.7%
viability, T/C [28]: 51.4%
viability, T/C [9]: 97.9%
viability, T/C [29]: 94%
viability, T/C [10]: 110%
viability, T/C [30]: 99.4%
viability, T/C [31]: 68.6%
viability, T/C [32]: 44.6%
viability, T/C [11]: 106%
viability, T/C [33]: 108%
viability, T/C [12]: 110%
viability, T/C [34]: 116%
viability, T/C [35]: 69.3%
viability, T/C [36]: 39.5%
